The target in experiment [1] is T1, Abl SH3 (Homo sapiens, UniProt P00519).
T1 construct: His6-SUMO (N, cleaved yes); made in house; host or cells: Escherichia coli BL21 DE3
Description: Fluorescence anisotropy binding, Abl SH3. Conditions: 30 nM fluorescent peptide, running buffer + 0.1 mg/mL BSA + 0.5 mM Thesit, average of triplicate experiments. An excerpt: (§1) Sequences corresponding to the Abl and Src SH3 (residues 84-145, UniProt ID SRC_HUMAN) domains were used for the wild-type SH3 domains. All proteins were expressed as His6-SUMO fusion proteins using the pET28a (+) plasmid (Genscript). Expression and purification protocols were similar to those used previously for other SLiM-binding domains [([Tahti et al., 2023]; [Gao et al., 2020]; [Wofford et al., 2021])]. All sequences used are in the Supporting Information.
(§2) Briefly, plasmids were transformed into BL21 DE3 chemically competent Escherichia coli cells. Selected colonies were grown in Terrific Broth (TB) at 37°C with shaking at 210 rpm. Once an optical density (OD) of 0.6–0.8 at λ = 600 nm was reached, protein expression was induced by the addition of 0.15 mM isopropyl-β-D-1-thiogalactopyranoside (IPTG) for 16–18 h at 18°C. […] SDS-PAGE was used to assess protein purity and the absorbance at λ = 280 nm with the calculated extinction coefficient (s), by Expasy ProtParam, was used to calculate protein concentration ([Wilkins et al., 1999]).
(§3) Fluorescence anisotropy assays were performed using a BioTek Synergy H1 plate reader, as previously described [([Tahti et al., 2023]; [Gao et al., 2020]; [Wofford et al., 2021]; [Valgardson et al., 2019])]. […] Determined K D values were the average calculated from triplicate experiments ([Cushing et al., 2008]). […]
On the technique in general: In fluorescence polarisation assays a small probe gives low polarisation when free and higher when bound to something large.

A further experiment has as its target T2, W122C SrcAbl SH3 (Homo sapiens, UniProt P12931, D120E/E100D/E118N/E96V/R98S/S97A/T101N/T117H/T99G/W122C).
T2 construct: His6-SUMO (N, cleaved yes); made in house; host or cells: Escherichia coli BL21 DE3
Description: Fluorescence anisotropy binding, W122C SrcAbl SH3. Conditions: 30 nM fluorescent peptide, running buffer + 0.1 mg/mL BSA + 0.5 mM Thesit, average of triplicate experiments.
Excerpt: (§4) Therefore, we wanted to engineer chimeric proteins to test if these loops alone could mediate specificity switching. In our chimeras, we swapped both the RT (sequence: ^96ESRTET^101) and nSrc (^117TEGD^120) loops of Src with the RT (^73VASGDN^78) and nSrc (^95HNGE^98) loop sequences of Abl, and vice versa in each SH3 domain. We termed the resulting proteins, SrcAbl and AblSrc, where the subscript indicates the sequence identity of both the RT and nSrc loops.
(§5) Sequences corresponding to the Abl and Src SH3 (residues 84-145, UniProt ID SRC_HUMAN) domains were used for the wild-type SH3 domains. All proteins were expressed as His6-SUMO fusion proteins using the pET28a (+) plasmid (Genscript). […]
(§6) Briefly, plasmids were transformed into BL21 DE3 chemically competent Escherichia coli cells. […] SDS-PAGE was used to assess protein purity and the absorbance at λ = 280 nm with the calculated extinction coefficient (s), by Expasy ProtParam, was used to calculate protein concentration ([Wilkins et al., 1999]).
as §3

The target in the next experiment is T3, AblSrc SH3 (Homo sapiens, UniProt P00519, A74S/D77E/E98D/G76T/H95T/N78T/N96E/S75R/V73E).
T3 construct: His6-SUMO (N, cleaved yes); made in house; host or cells: Escherichia coli BL21 DE3
T3 sequence (P00519 61-121 V73E/A74S/S75R/G76T/D77E/N78T/H95T/N96E/E98D limits assumed): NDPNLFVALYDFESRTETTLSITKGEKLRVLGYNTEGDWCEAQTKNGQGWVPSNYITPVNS
Description: Fluorescence anisotropy binding, AblSrc SH3 chimera (Abl SH3 with Src RT and nSrc loops). Conditions: 30 nM fluorescent peptide, running buffer + 0.1 mg/mL BSA + 0.5 mM Thesit, average of triplicate experiments, >1,000 = undetectable.
Excerpt: as §4, §5, §6, §3

The target of a further experiment is T4, C100W Abl SH3 (Homo sapiens, UniProt P00519, C100W).
T4 construct: His6-SUMO (N, cleaved yes); made in house; host or cells: Escherichia coli BL21 DE3
T4 sequence (P00519 61-121 C100W limits assumed): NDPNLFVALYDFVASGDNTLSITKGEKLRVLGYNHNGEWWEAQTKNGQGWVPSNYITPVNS
Kind of experiment: Fluorescence anisotropy binding, C100W Abl SH3. Conditions: 30 nM fluorescent peptide, running buffer + 0.1 mg/mL BSA + 0.5 mM Thesit, average of triplicate experiments, >1,000 = undetectable.
Excerpt: as §1, §2, §3

For a further experiment, the target named is T5, SrcAbl SH3 (Homo sapiens, UniProt P12931, D120E/E100D/E118N/E96V/R98S/S97A/T101N/T117H/T99G).
T5 construct: His6-SUMO (N, cleaved yes); made in house; host or cells: Escherichia coli BL21 DE3
Description: Fluorescence anisotropy binding, SrcAbl SH3 chimera (Src SH3 with Abl RT and nSrc loops). Conditions: 30 nM fluorescent peptide, running buffer + 0.1 mg/mL BSA + 0.5 mM Thesit, average of triplicate experiments.

Another experiment addresses T6, W122C Src SH3 (Homo sapiens, UniProt P12931, W122C).
T6 construct: His6-SUMO (N, cleaved yes); made in house; host or cells: Escherichia coli BL21 DE3
Kind of experiment: Fluorescence anisotropy binding, W122C Src SH3. Conditions: 30 nM fluorescent peptide, running buffer + 0.1 mg/mL BSA + 0.5 mM Thesit, average of triplicate experiments.

A further experiment has as its target T7, Src SH3 (Homo sapiens, UniProt P12931).
T7 construct: His6-SUMO (N, cleaved yes); made in house; host or cells: Escherichia coli BL21 DE3
Description: Fluorescence anisotropy binding, Src SH3. Conditions: 30 nM fluorescent peptide, running buffer + 0.1 mg/mL BSA + 0.5 mM Thesit, average of triplicate experiments, >1,000 = no binding.

The target of a further experiment is Fyn SH3. On the set-up: method as in Pisabarro and Serrano, 1996; Pisabarro et al., 1998. Conditions: Fyn SH3, previously published; ref Pisabarro and Serrano, 1996; Pisabarro et al., 1998; read-out: affinity (K D); cited from earlier work.
Experiment [2] deals with T1, Abl SH3. On the set-up: method as in Pisabarro and Serrano, 1996; Pisabarro et al., 1998. Conditions: Abl SH3, previously published; ref Pisabarro and Serrano, 1996; Pisabarro et al., 1998; read-out: affinity (K D); cited from earlier work.

Where “and” joins values, the source holds several entries; their conditions need not be identical. Equal values may be shown once. Read-outs that look alike come from different tables or passages of the source. Peptide text beside a SMILES is read from it. * marks the point of attachment. FITC = O=C1OC2(c3ccc(O)cc3Oc3cc(O)ccc32)c2ccc(NC(=S)*)cc21; Ahx = NCCCCCC(=O)O

Data on four compounds can be found in PMC11653366, “The conformation of the nSrc specificity-determining loop in the Src SH3 domain is modulated by a WX conserved sequence motif found in SH3 domains” (Frontiers in Molecular Biosciences, 2024).

T1 sequence (P00519 61-121 limits assumed): as the sequence (P00519 61-121 C100W limits assumed) above, with W40C counted along it

For `CC(C)C[C@H](NC(=O)CCCCCNC(=S)Nc1ccc2c(c1)C(=O)OC21c2ccc(O)cc2Oc2cc(O)ccc21)C(=O)N[C@@H](C)C(=O)N[C@@H](CO)C(=O)N[C@@H](CCCNC(=N)N)C(=O)N1CCC[C@H]1C(=O)N[C@@H](CC(C)C)C(=O)N1CCC[C@H]1C(=O)N[C@@H](CC(C)C)C(=O)N[C@@H](CC(C)C)C(=O)N1CCC[C@H]1C(=O)O` [F*-PLLP], the Kd is more than 1000 µM on Abl SH3 [1]; more than 1000 µM on W122C SrcAbl SH3; more than 1000 µM on AblSrc SH3; more than 1000 µM on C100W Abl SH3; 140 ± 20 µM at SrcAbl SH3.
With `C[C@H](NC(=O)CCCCCNC(=S)Nc1ccc2c(c1)C(=O)OC21c2ccc(O)cc2Oc2cc(O)ccc21)C(=O)N1CCC[C@H]1C(=O)N[C@H](C(=O)N[C@@H](Cc1ccc(O)cc1)C(=O)N[C@@H](CO)C(=O)N1CCC[C@H]1C(=O)N1CCC[C@H]1C(=O)N1CCC[C@H]1C(=O)N1CCC[C@H]1C(=O)N1CCC[C@H]1C(=O)O)[C@@H](C)O` [F*-p40] ({FITC-Ahx}-APTYSPPPPP-OH), the Kd was 3.1 ± 0.4 µM at Abl SH3 [1]; 450 ± 190 µM on W122C SrcAbl SH3; more than 1000 µM at W122C Src SH3; 210 ± 30 µM on AblSrc SH3; 55 ± 20 µM at C100W Abl SH3; more than 1000 µM at Src SH3. At SrcAbl SH3, the Kd is 130 ± 40 µM.
Regarding `C[C@H](N)C(=O)N1CCC[C@H]1C(=O)N[C@H](C(=O)N[C@@H](Cc1ccc(O)cc1)C(=O)N[C@@H](CO)C(=O)N1CCC[C@H]1C(=O)N1CCC[C@H]1C(=O)N1CCC[C@H]1C(=O)N1CCC[C@H]1C(=O)N1CCC[C@H]1C(=O)O)[C@@H](C)O` [p40] (H-APTYSPPPPP-OH; N-terminus and C-terminus assumed), the Kd is 472 µM and 470 µM at Fyn SH3; more than 1000 µM on Src SH3.
On to “RAPTMPPPLPP [initial ligand, derived from the 3BP1 protein]”, for which the Kd with Abl SH3 [2] and at Fyn SH3 was 30 µM throughout.
